From US8653075B2, “Therapeutic methods employing substituted piperidines which are CCR3 antagonists” (Boehringer Ingelheim International GmbH, priority 2009, dated 2014)

Target: T1, human chemokine receptor CCR3 (Homo sapiens, UniProt P51677)
T1 construct: expressed in transfected cells; host or cells: K562 cell line (hCCR3-C1 cells), membrane preparation
T1 sequence (P51677 1-355): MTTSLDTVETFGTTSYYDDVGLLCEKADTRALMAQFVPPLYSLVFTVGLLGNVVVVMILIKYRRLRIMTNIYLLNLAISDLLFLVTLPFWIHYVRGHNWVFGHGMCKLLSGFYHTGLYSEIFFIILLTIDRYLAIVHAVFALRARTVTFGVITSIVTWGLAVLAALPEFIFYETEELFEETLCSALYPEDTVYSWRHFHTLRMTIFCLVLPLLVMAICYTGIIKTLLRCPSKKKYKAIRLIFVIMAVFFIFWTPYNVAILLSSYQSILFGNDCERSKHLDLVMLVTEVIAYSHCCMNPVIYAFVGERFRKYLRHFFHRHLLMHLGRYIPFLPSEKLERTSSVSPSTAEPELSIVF
Test: CCR3 receptor binding assay (SPA, 125I-eotaxin-1 displacement, hCCR3-C1 K562 cell membranes)
Conditions: human Eotaxin-1 at human CCR3-Rezeptor; for inhibition at 1 µM: 1 μM test compound, read-out: CCR3 % inh @ 1 μM; for Ki: dose range 0.1 to 10000 nM
Procedure, shortened: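 SPA displacement of recombinant human 125I-eotaxin-1 (30.000 dpm per well) from membranes of CCR3-transfected K562 cells (0.5-10 μg protein/well) on WGA beads. Buffer was 25 mM HEPES, 25 mM MgCl2, 1 mM CaCl2, 0.1% BSA; incubation 2 h at room temperature. Specific binding was total minus NSB (unlabelled eotaxin-1), giving % inhibition and Ki.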

| Structure (SMILES) | inhibition at 1 µM [%] | Ki [nM] |
| --- | --- | --- |
| Cc1cc(CN2CCC(N3C(=O)CC[C@@H]3C(=O)Nc3cccc(C(=O)N4CCC4)c3)CC2)ccc1Cl [Example 152] | 100 | 12 |
| Cc1cc(CN2CCC(N3C(=O)CC[C@@H]3C(=O)Nc3cccc(C(=O)N4CCCCC4CO)c3)CC2)ccc1Cl (stereo partly drawn) [Example 153] | 99 | 12 |
| Cc1nnc(NC(=O)c2cccc(NC(=O)[C@H]3CCC(=O)N3C3CCN(Cc4ccc(Cl)c(C)c4)CC3)c2)s1 [Example 154] | 98 | 14 |
| CCN(CCO)C(=O)c1cccc(NC(=O)[C@H]2CCC(=O)N2C2CCN(Cc3ccc(Cl)c(C)c3)CC2)c1 [Example 156] | 98 | 15 |
| Cc1cc(CN2CCC(N3C(=O)CC[C@@H]3C(=O)Nc3cc(C(=O)N4CCOCC4)ccn3)CC2)ccc1Cl [Example 160] | 97 | 19 |
| Cc1cc(CN2CCC(N3C(=O)CC[C@@H]3C(=O)Nc3cccc(C(=O)NCC4CCCCO4)c3)CC2)ccc1Cl (stereo partly drawn) [Example 161] | 97 | 20 |
| Cc1cc(CN2CCC(N3C(=O)CC[C@@H]3C(=O)Nc3cccc(C(=O)NC[C@@H]4CCCO4)c3)CC2)ccc1Cl [Example 162] | 97 | 20 |
| Cc1cc(CN2CCC(N3C(=O)CC[C@@H]3C(=O)Nc3cccc(C(=O)NCC(C)(C)C)c3)CC2)ccc1Cl [Example 163] | 99 | 23 |
| CCn1cc(NC(=O)[C@H]2CCC(=O)N2C2CCN(Cc3ccc(Cl)c(C)c3)CC2)cc1C(=O)N1CCCC1 [Example 164] | 96 | 24 |
| CNC(=O)c1cccc(N(C)C(=O)[C@H]2CCC(=O)N2C2CCN(Cc3ccc(Cl)c(C)c3)CC2)c1 [Example 166] | 60 | 905 |
| COc1ccc(NC(=O)[C@H]2CCC(=O)N2C2CCN(Cc3ccc(Cl)c(C)c3)CC2)cc1C(=O)N(C)CCO [Example 178] | 86 | 108 |
| CNC(=O)c1cc(NC(=O)[C@H]2CCC(=O)N2C2CCN(Cc3ccc(Cl)c(C)c3)CC2)ccc1OC [Example 180] | 97 | 16 |
| Cc1cc(CN2CCC(N3C(=O)CC[C@@H]3C(=O)Nc3cc(C(=O)N(C)CCO)cc(-c4nnnn4C)c3)CC2)ccc1Cl [Example 186] | 99 | 1 |
| Cc1cc(CN2CCC(N3C(=O)CCC3C(=O)Nc3cc(-c4c(C)noc4C)ccn3)CC2)ccc1Cl (stereo not drawn) [Example 192] | 96 |  |
| Cc1cc(CN2CCC(N3C(=O)CC[C@@H]3C(=O)Nc3cc(-c4c(C)noc4C)ccn3)CC2)ccc1Cl [Example 192] |  | 6 |
| CN1C[C@H](C(=O)Nc2cc(C3CC3)nn2C)N(C2CCN(Cc3ccc(OC(F)(F)F)c(F)c3)CC2)C1=O [Example 197] | 44 | 1250 |
| CN1C[C@H](C(=O)Nc2cc(C3CC3)nn2C)N(C2CCN(Cc3ccc(Cl)c(Cl)c3)CC2)C1=O [Example 198] | 91 | 67 |
| CN1C[C@H](C(=O)Nc2cc(C3CC3)nn2C)N(C2CCN(Cc3ccc(Cl)c(C(F)(F)F)c3)CC2)C1=O [Example 199] | 66 | 453 |
| CNC(=O)c1cccc(NC(=O)[C@H]2CCC(=O)N2C2CCN(Cc3ccc(Br)cc3)CC2)c1 [Example 200] | 86 | 114 |
| CNC(=O)c1cccc(NC(=O)[C@H]2CCC(=O)N2C2CCN(Cc3ccc(Cl)cc3)CC2)c1 [Example 201] | 86 | 119 |
| CNC(=O)c1cccc(NC(=O)[C@H]2CCC(=O)N2C2CCN(Cc3ccc(F)cc3)CC2)c1 [Example 202] | 69 | 390 |
| CNC(=O)c1cccc(NC(=O)[C@H]2CCC(=O)N2C2CCN(Cc3ccc(F)c(Cl)c3)CC2)c1 [Example 203] | 75 | 237 |
| CNC(=O)c1cccc(NC(=O)[C@H]2CCC(=O)N2C2CCN(Cc3ccc(Cl)c(F)c3)CC2)c1 [Example 204] | 80 | 299 |
| CNC(=O)c1cccc(NC(=O)[C@H]2CCC(=O)N2C2CCN(Cc3ccc(C)c(C)c3)CC2)c1 [Example 205] | 76 | 247 |
| CNC(=O)c1cccc(NC(=O)[C@H]2CCC(=O)N2C2CCN(Cc3ccc(Cl)s3)CC2)c1 [Example 206] | 77 | 357 |

Next, values leading:

| inhibition at 1 µM [%] | Ki [nM] | Structure (SMILES) |
| --- | --- | --- |
| 97 | 10 | CNC(=O)c1cc(C)nc(NC(=O)[C@H]2CCC(=O)N2C2CCN(Cc3ccc(Cl)c(C)c3)CC2)c1 [Example 150] |
| 95 | 18 | CNC(=O)c1cccc(NC(=O)[C@H]2CCC(=O)N2C2CCN(Cc3ccc(Cl)c(C)c3)CC2)c1 [Example 151] |
| 98 | 15 | CCn1cc(NC(=O)[C@H]2CCC(=O)N2C2CCN(Cc3ccc(Cl)c(C)c3)CC2)cc1C(=O)NC [Example 155] |
| 99 | 15 | CCN(CC)C(=O)c1cccc(NC(=O)[C@H]2CCC(=O)N2C2CCN(Cc3ccc(Cl)c(C)c3)CC2)c1 [Example 157] |
| 100 | 16 | Cc1cc(CN2CCC(N3C(=O)CC[C@@H]3C(=O)Nc3cccc(C(=O)NC(C)(C)C)c3)CC2)ccc1Cl [Example 158] |
| 96 | 19 | Cc1cc(CN2CCC(N3C(=O)CC[C@@H]3C(=O)Nc3cccc(C(=O)N(C)CCO)c3)CC2)ccc1Cl [Example 159] |
| 90 | 62 | CCNC(=O)c1cc(NC(=O)[C@H]2CCC(=O)N2C2CCN(Cc3ccc(Cl)c(C)c3)CC2)ccc1C [Example 165] |
| 98 | 6 | Cc1cc(NC(=O)[C@H]2CCC(=O)N2C2CCN(Cc3ccc(Cl)c(C)c3)CC2)cc(C(=O)N(C)C)c1 [Example 167] |
| 99 | 4 | Cc1cc(CN2CCC(N3C(=O)CC[C@@H]3C(=O)Nc3cc(Cl)cc(C(=O)N(C)C)c3)CC2)ccc1Cl [Example 168] |
| 99 | 19 | CNC(=O)c1cc(Cl)cc(NC(=O)[C@H]2CCC(=O)N2C2CCN(Cc3ccc(Cl)c(C)c3)CC2)c1 [Example 169] |
| 100 | 6 | Cc1cc(CN2CCC(N3C(=O)CC[C@@H]3C(=O)Nc3cc(C(=O)N(C)CCO)cc(C(C)(C)C)c3)CC2)ccc1Cl [Example 170] |
| 99 | 5 | Cc1cc(CN2CCC(N3C(=O)CC[C@@H]3C(=O)Nc3cc(C(=O)N(C)C)cc(C(C)(C)C)c3)CC2)ccc1Cl [Example 171] |
| 95 | 7 | CNC(=O)c1cc(NC(=O)[C@H]2CCC(=O)N2C2CCN(Cc3ccc(Cl)c(C)c3)CC2)cc(C(C)(C)C)c1 [Example 172] |
| 99 | 13 | COc1cc(NC(=O)[C@H]2CCC(=O)N2C2CCN(Cc3ccc(Cl)c(C)c3)CC2)cc(C(=O)N(C)C)c1 [Example 173] |
| 99 | 13 | CNC(=O)c1cc(NC(=O)[C@H]2CCC(=O)N2C2CCN(Cc3ccc(Cl)c(C)c3)CC2)cc(OC)c1 [Example 174] |
| 99 | 6 | Cc1cc(NC(=O)[C@H]2CCC(=O)N2C2CCN(Cc3ccc(Cl)c(C)c3)CC2)cc(C(=O)N(C)CCO)c1 [Example 175] |
| 100 | 11 | Cc1cc(CN2CCC(N3C(=O)CC[C@@H]3C(=O)Nc3cc(F)cc(C(=O)N(C)C)c3)CC2)ccc1Cl [Example 176] |
| 97 | 24 | CNC(=O)c1cc(F)cc(NC(=O)[C@H]2CCC(=O)N2C2CCN(Cc3ccc(Cl)c(C)c3)CC2)c1 [Example 177] |
| 95 | 34 | COc1ccc(NC(=O)[C@H]2CCC(=O)N2C2CCN(Cc3ccc(Cl)c(C)c3)CC2)cc1C(=O)N(C)C [Example 179] |
| 99 | 4 | Cc1cc(CN2CCC(N3C(=O)CC[C@@H]3C(=O)Nc3cc(C(=O)N(C)C)cc(C(C)C)n3)CC2)ccc1Cl [Example 182] |
| 75 | 232 | COc1cc(C(=O)N(C)C)cc(NC(=O)[C@H]2CCC(=O)N2C2CCN(Cc3ccc(Cl)c(C)c3)CC2)n1 [Example 183] |
| 100 | 8 | CCc1cc(C(=O)N(C)C)cc(NC(=O)[C@H]2CCC(=O)N2C2CCN(Cc3ccc(Cl)c(C)c3)CC2)n1 [Example 184] |
| 98 | 1 | Cc1cc(CN2CCC(N3C(=O)CC[C@@H]3C(=O)Nc3cc(C(=O)N(C)C)cc(-c4nnnn4C)c3)CC2)ccc1Cl [Example 185] |
| 100 | 4 | Cc1cc(CN2CCC(N3C(=O)CC[C@@H]3C(=O)Nc3nc(C(C)C)c(C(=O)N(C)C)s3)CC2)ccc1Cl [Example 189] |
| 100 | 6 | CNC(=O)c1sc(NC(=O)[C@H]2CCC(=O)N2C2CCN(Cc3ccc(Cl)c(C)c3)CC2)nc1C [Example 190] |
| 99 | 19 | Cc1cc(-c2noc(C)n2)cc(NC(=O)[C@H]2CCC(=O)N2C2CCN(Cc3ccc(Cl)c(C)c3)CC2)n1 [Example 193] |
| 89 | 95 | Cc1cc(-c2nnnn2C)cc(NC(=O)[C@H]2CCC(=O)N2C2CCN(Cc3ccc(Cl)c(C)c3)CC2)n1 [Example 196] |
